Data reported in patent US11267825B2 (AICURIS GMBH & CO. KG, priority 2017, dated 2022).
Where two headings read alike, the source gives them in different places.

Tests used:
HBV = assay: Determination of HBV DNA from the supernatants of HepAD38 cells (anti-HBV activity); format: cell-based, hepatitis B virus; conditions: Hepatitis B virus, read-out: Cell Activity (EC50)
In short: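 HepAD38 cells (60,000/well) were treated with half-log compound dilutions in tetracycline-free medium to induce HBV production. On day 6, HBV DNA was purified from filtered supernatant and quantified by real-time PCR against plasmid standards. EC50 values came from non-linear regression of relative copy numbers, typically from three experiments in triplicate.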

HBV core protein = HBV core protein (UniProt P03146); format: biochemical; conditions: read-out: Assembly Activity (IC50); BODIPY-FL labelled core protein, assembly started with NaCl, read after 6 min
Sequence of HBV core protein (P03146 whole entry, looked up): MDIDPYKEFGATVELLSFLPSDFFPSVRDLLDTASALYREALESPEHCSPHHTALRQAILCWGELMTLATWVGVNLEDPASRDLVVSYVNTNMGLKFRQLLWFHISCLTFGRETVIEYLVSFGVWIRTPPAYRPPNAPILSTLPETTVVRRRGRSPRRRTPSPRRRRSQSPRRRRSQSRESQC
In short: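 Fluorescence-quenching assembly assay using E. coli-expressed core protein 1–149 plus Cys150, labelled with BODIPY-FL maleimide, at 1.0–2.0 μM in 50 mM HEPES pH 7.5, 0.5% DMSO. Assembly started with NaCl to […]; fluorescence (ex 477/em 525 nm) read after 6 min. EC50 by non-linear regression, 8-point 0.5-log dilutions.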

[1] = 144 h, HBV DNA in HepAD38 supernatant at day 6

| Structure (SMILES) | EC50 (HBV; [1]) [µM] | IC50 (HBV core protein) [µM] | EC50 (HBV; HePAD38, 144 h) [µM] |
| --- | --- | --- | --- |
| O=C(c1cc2ccccc2[nH]1)N1CCc2nc(NS(=O)(=O)C3CC3)sc2C1 [Example 6, N-[5-(1H-indole-2-carbonyl)-4H,5H,6H,7H-[1,3]thiazolo[5,4-c]pyridin-2-yl]cyclopropanesulfonamide] | < 1 | < 100 | – |
| O=C(c1cc2ccc(Cl)cc2[nH]1)N1CCc2nc(NCC3(O)CCC3)sc2C1 [Example 331, 1-({[5-(6-chloro-1H-indole-2-carbonyl)-4H,5H,6H,7H-[1,3]thiazolo[5,4-c]pyridin-2-yl]amino}methyl)cyclobutan-1-ol] | < 1 | 5 to 10 | – |
| COCCNc1nc2c(s1)CN(C(=O)c1cc3ccccc3[nH]1)CC2 [Example 97, 5-(1H-indole-2-carbonyl)-N-(2-methoxyethyl)-4H,5H,6H,7H-[1,3]thiazolo[5,4-c]pyridin-2-amine] | < 1 | < 5 | – |
| O=C(c1cc2ccc(Br)cc2[nH]1)N1CCc2nc(NCC3(O)CCC3)sc2C1 [Example 365, 1-({[5-(6-bromo-1H-indole-2-carbonyl)-4H,5H,6H,7H-[1,3]thiazolo[5,4-c]pyridin-2-yl]amino}methyl)cyclobutan-1-ol] | < 1 | < 5 | – |
| O=C(Nc1nc2c(s1)CN(C(=O)c1cc3c(C(F)F)cccc3[nH]1)CC2)C1CCOCC1 [Example 400, N-{5-[4-(difluoromethyl)-1H-indole-2-carbonyl]-4H,5H,6H,7H-[1,3]thiazolo[5,4-c]pyridin-2-yl}oxane-4-carboxamide] | < 1 | < 5 | – |
| CN(C)c1nc2c(s1)CN(C(=O)c1cc3ccccc3[nH]1)CC2 [Example 204, 5-(1H-indole-2-carbonyl)-N,N-dimethyl-4H,5H,6H,7H-[1,3]thiazolo[5,4-c]pyridin-2-amine] | 1 to 10 | < 100 | – |
| C[C@H](O)CNc1nc2c(s1)CN(C(=O)c1cc3ccccc3[nH]1)CC2 [Example 99, (2S)-1-{[5-(1H-indole-2-carbonyl)-4H,5H,6H,7H-[1,3]thiazolo[5,4-c]pyridin-2-yl]amino}propan-2-ol] | < 1 | < 5 | – |
| CC(C)(C)OC(=O)N1CCC(CNc2nc3c(s2)CN(C(=O)c2cc4ccccc4[nH]2)CC3)C1 (stereo not drawn) [Example 392, tert-butyl 3-({[5-(1H-indole-2-carbonyl)-4H,5H,6H,7H-[1,3]thiazolo[5,4-c]pyridin-2-yl]amino}methyl)pyrrolidine-1-carboxylate] | < 1 | < 5 | – |
| O=C(c1cc2c(C(F)F)cc(F)cc2[nH]1)N1CCc2nc(NCC3CCOC3)sc2C1 (stereo not drawn) [Example 326, 5-[4-(difluoromethyl)-6-fluoro-1H-indole-2-carbonyl]-N-[(oxolan-3-yl)methyl]-4H,5H,6H,7H-[1,3]thiazolo[5,4-c]pyridin-2-amine] | < 1 | < 5 | – |
| O=C(c1cc2ccccc2[nH]1)N1CCc2nc(NCC3CCNC3)sc2C1 (stereo not drawn) [Example 389, 5-(1H-indole-2-carbonyl)-N—[(pyrrolidin-3-yl)methyl]-4H,5H,6H,7H-[1,3]thiazolo[5,4-c]pyridin-2-amine] | 1 to 10 | < 5 | – |
| O=C(c1cc2c(Br)cccc2[nH]1)N1CCc2nc(NCC3(O)CCC3)sc2C1 [Example 364, 1-({[5-(4-bromo-1H-indole-2-carbonyl)-4H,5H,6H,7H-[1,3]thiazolo[5,4-c]pyridin-2-yl]amino}methyl)cyclobutan-1-ol] | < 1 | < 5 | – |
| Cc1nc2c(s1)CN(C(=O)c1cc3cccc(OC(F)F)c3[nH]1)CC2 [Example 182, 7-(difluoromethoxy)-2-{2-methyl-4H,5H,6H,7H-[1,3]thiazolo[5,4-c]pyridine-5-carbonyl}-1H-indole] | 1 to 10 | < 100 | – |
| O=C(c1cc2c(Cl)c(F)ccc2[nH]1)N1CCc2nc(NCC3(CO)CC3)sc2C1 [Example 251, [1-({[5-(4-chloro-5-fluoro-1H-indole-2-carbonyl)-4H,5H,6H,7H-[1,3]thiazolo[5,4-c]pyridin-2-yl]amino}methyl)cyclopropyl]methanol] | < 1 | < 5 | – |
| O=C(c1cc2ccccc2[nH]1)N1CCc2nc(NCC3CCOC3)sc2C1 (stereo not drawn) [Example 91, 5-(1H-indole-2-carbonyl)-N-[(oxolan-3-yl)methyl]-4H,5H,6H,7H-[1,3]thiazolo[5,4-c]pyridin-2-amine] | – | < 5 | < 1 |
| CCc1cccc2[nH]c(C(=O)N3CCc4nc(NCC5(CO)CC5)sc4C3)cc12 [Example 272, [1-({[5-(4-ethyl-1H-indole-2-carbonyl)-4H,5H,6H,7H-[1,3]thiazolo[5,4-c]pyridin-2-yl]amino}methyl)cyclopropyl]methanol] | < 1 | < 5 | – |
| Nc1nc2c(s1)CN(C(=O)c1cc3c(Cl)cccc3[nH]1)CC2 [Example 210, 5-(4-chloro-1H-indole-2-carbonyl)-4H,5H,6H,7H-[1,3]thiazolo[5,4-c]pyridin-2-amine] | < 1 | < 5 | – |
| O=C(c1cc2ccccc2[nH]1)N1CCc2nc(NC3COC3)sc2C1 [Example 127, 5-(1H-indole-2-carbonyl)-N-(oxetan-3-yl)-4H,5H,6H,7H-[1,3]thiazolo[5,4-c]pyridin-2-amine] | < 1 | < 5 | – |
| Nc1nc2c(s1)CN(C(=O)c1cc3ccc(Cl)c(F)c3[nH]1)CC2 [Example 407, 5-(6-chloro-7-fluoro-1H-indole-2-carbonyl)-4H,5H,6H,7H-[1,3]thiazolo[5,4-c]pyridin-2-amine] | < 1 | < 5 | – |
| Nc1nc2c(s1)CN(C(=O)c1cc3c(F)cc(F)c(F)c3[nH]1)CC2 [Example 84, 5-(4,6,7-trifluoro-1H-indole-2-carbonyl)-4H,5H,6H,7H-[1,3]thiazolo[5,4-c]pyridin-2-amine] | < 1 | < 5 | – |
| Nc1nc2c(s1)CN(C(=O)c1cc3c(F)cc(Br)cc3[nH]1)CC2 [Example 143, 5-(6-bromo-4-fluoro-1H-indole-2-carbonyl)-4H,5H,6H,7H-[1,3]thiazolo[5,4-c]pyridin-2-amine] | < 1 | < 5 | – |
| CC(C)(CO)Nc1nc2c(s1)CN(C(=O)c1cc3ccccc3[nH]1)CC2 [Example 68, 2-{[5-(1H-indole-2-carbonyl)-4H,5H,6H,7H-[1,3]thiazolo[5,4-c]pyridin-2-yl]amino}-2-methylpropan-1-ol] | < 1 | < 5 | – |
| CC(C)[C@H](N)C(=O)OCC1(CNc2nc3c(s2)CN(C(=O)c2cc4ccccc4[nH]2)CC3)CC1 [Example 235, [1-({[5-(1H-indole-2-carbonyl)-4H,5H,6H,7H-[1,3]thiazolo[5,4-c]pyridin-2-yl]amino}methyl)cyclopropyl]methyl (2S)-2-amino-3-methylbutanoate] | < 1 | < 5 | – |
| COC1(CNc2nc3c(s2)CN(C(=O)c2cc4ccccc4[nH]2)CC3)CCOC1 (stereo not drawn) [Example 246, 5-(1H-indole-2-carbonyl)-N-[(3-methoxyoxolan-3-yl)methyl]-4H,5H,6H,7H-[1,3]thiazolo[5,4-c]pyridin-2-amine] | < 1 | < 5 | – |
| O=C(c1cc2c(Cl)cc(F)cc2[nH]1)N1CCc2nc(NC3(CO)CCC3)sc2C1 [Example 223, (1-{[5-(4-chloro-6-fluoro-1H-indole-2-carbonyl)-4H,5H,6H,7H-[1,3]thiazolo[5,4-c]pyridin-2-yl]amino}cyclobutyl)methanol] | < 1 | < 5 | – |
